Source: US20240041036A1, “BIO PESTICIDAL COMPOSITION CONTAINS NOVEL NONANOATE ESTERS OF SUGARS AND SUGAR ALCOHOLS TO CONTROL LEPIDOPTERA, HEMIPTERA AND THYSANOPTERA INSECTS” (FERTIS INDIA PVT. LTD., priority 2020, published 2024)

Columns and labels:
Assay in all cases: Field experiment on cotton sucking insects, population count
Type in all cases: in vivo
[1] = system: thrips (Scirtothrips dorsails); conditions: for Thrips population count after spray: 0.5 g/L; for Reduction of thrips population: after 24 h, dose not stated
Protocol: (§1) A field experiment was conducted with EN2 formulation on cotton sucking insects viz. thrips (Scirtothrips dorsails), aphids (Aphis gossypii), jassids (Amrascabi guttula) and whitefly (Bemisia tabaci), as shown in FIG. 25. Two benchmark insecticides were used as control viz. Thiamethoxam (a broad spectrum insecticide) and Acetamiprid (effective to cotton sucking pest). Three doses of EN 2 formulation (for 1 kg formulation EN 800 g+Arginine 80 g+Silwet20 g+Tergitol 20 g+Water 150 g) was used for this study viz. […] Initially the population of the pests (pre count) was assessed before spraying. […] The number of major sucking pests (2 leaves from top, one from middle and 2 leaves from bottom) in 5 tagged plants/treatment was recorded at 24 h before the spray and after 24 h, 3rd, 6th and 9th day after spray. The data was pooled and average population calculated.

[2] = system: whitefly (Bemisia tabaci); conditions: 0.5 g/L
Protocol: as §1

[3] = system: jassids (Amrascabi guttula); conditions: for Jassids population count after spray: 0.5 g/L
Protocol: as §1, with “pest).” for “pest). Three doses of EN 2 formulation (for 1 kg formulation EN 800 g+Arginine 80 g+Silwet20 g+Tergitol 20 g+Water 150 g) was used for this study viz.”

SMILES | Thrips population count after spray ([1]; 3rd day after spray) | Thrips population count after spray ([1]; 6th day after spray) | Thrips population count after spray ([1]; 9th day after spray) | Thrips population count after spray ([1]; 24 h after spray) | Reduction of thrips population [1] [%] | Whitefly population count after spray ([2]; 3rd day after spray) | Whitefly population count after spray ([2]; 6th day after spray) | Whitefly population count after spray ([2]; 9th day after spray) | Whitefly population count after spray ([2]; 24 h after spray) | Jassids population count after spray ([3]; 3rd day after spray) | Jassids population count after spray ([3]; 6th day after spray) | Jassids population count after spray ([3]; 9th day after spray) | Jassids population count after spray ([3]; 24 hrs after spray) | Reduction of Jassids population ([3]; 3rd day after the spray) [%] | Reduction of Jassid population ([3]; 9th day) [%]
C/C(=N\C#N)N(C)Cc1ccc(Cl)nc1 [Acetamiprid] | 4.06 | 5.66 | 3.6 | 22.7 | 13.7 | 1.66 | 2.4 | 2.13 | 8.66 | 3.56 | 2.66 | 3.36 | 14 |  | 
CN1COCN(Cc2cnc(Cl)s2)/C1=N\[N+](=O)[O-] [Thiamethoxam] | 3.46 | 5.33 | 3.76 | 23.7 | 15.9 | 1.86 | 2.46 | 1.7 | 7 | 3.26 | 2 | 2.73 | 13.66 | 11.8 | 40.6
